{"source": "patent US8192962B2", "about": "“Processes for detecting toxic substances” (Daikin Industries, Ltd., priority 2001, dated 2012)", "test_system": "Metabolism protein genes", "experiment": "DNA chip mRNA expression in yeast, metabolism protein genes (Table 7)", "type": "cell-based, Saccharomyces cerevisiae S288C", "protocol": "Yeast (Saccharomyces cerevisiae S288C (α SUC2mal mel gap2 CUP1)) were incubated at 25° C. on YPD medium (yeast extract 1%, polypepton 2%, glucose 2%). One of toxic chemical substances was added to the cells at logarithmic growth phase, and the cells were further incubated for two hours. Cells were cultured without any chemical substance in the same condition, and were used as control. Concentrations of the chemical substances were defined to inhibit the growth of the yeast but not lead to death.\nAfter completion of the incubation, the culture was centrifuged to collect the cells. To the cells, sodium acetate buffer (50 mM sodium acetate, 10 mM EDTA, 1% SDS) was added, and the mixture was shaken at 65° C. for five minutes, followed by returning to room temperature, and obtaining the supernatant, of which the procedures were repeated two times. To the supernatant, ½ amount of a solution of phenol/chloroform was added, and the mixture was centrifuged to give a supernatant, which was added with an equal amount of chloroform, and the mixture was centrifuged to give a supernatant. To the supernatant, an equal amount of isopropanol containing 0.3 M sodium acetate was added, and the mixture was allowed to stand at room temperature for 30 minutes, after which the mixture was centrifuged to give a sediment of the whole RNAs. Seventy % ethanol was added to the sediment, and the mixture was again centrifuged to give a sediment, which was then dried and dissolved in water. mRNA was isolated from the whole RNAs as followings. In view of the fact that a poly A chain is attached to the 3′ terminus of mRNA, a polynucleotide having a poly T structure which was immobilized on the surface of latex beads was used to trap the mRNA, and then the mRNA was washed and eluted with spine column (Oligotex-dT30<Super>mRNA Purification Kit, Takara). Reverse transcription of the mRNA was conducted with a reverse transcriptase (Super Script II Reverse Transcriptase; catalogue No. 18064-014, GibcoBRL) using fluorescence-labeled nucleotides to give cDNAs that were introduced with Cy3-dUTP or Cy5-dUTP during the reverse transcription.\nThe labeled cDNAs were dissolved in TE buffer (10mM Tris-HCl/1 mM EDTA, pH8.0), and the solution was dropped on the DNA chip containing the whole genes of yeast (DNA Chip Research Inc. Japan) so that the cDNAs were hybridized on the DNA chip at 65° C. for over 12 hours. The fluoresces intensity of the DNA chip was read with a scanner, and the ratio relative to the fluorescence intensity resulting from the absence of chemical substance was estimated as the following, which is shown in Tables 1 to 9: […]"}
{"compound": "S=C([S-])NCCNC(=S)[S-].[Zn+2]", "note": "[(11), zinc N,N′-ethylenebis(dithiocarbamate)]", "values": [{"measurement": "The level of expressed mRNA in the presence of chemical substance/The level of expressed mRNA in the absence of chemical substance", "setting": "yeast gene YFR015C", "result": 3.9}, {"measurement": "The level of expressed mRNA in the presence of chemical substance/The level of expressed mRNA in the absence of chemical substance", "setting": "yeast gene YFR047C", "result": 2.3}, {"measurement": "level of expressed mRNA in the presence/in the absence of chemical substance", "setting": "yeast gene YGL012W", "result": 0.6}, {"measurement": "The level of expressed mRNA in the presence of chemical substance/The level of expressed mRNA in the absence of chemical substance", "setting": "yeast gene YGL022W", "result": 0.8}, {"measurement": "level of expressed mRNA in the presence/in the absence of chemical substance", "setting": "yeast gene YGL115W", "result": 1.0}, {"measurement": "The level of expressed mRNA in the presence of chemical substance/The level of expressed mRNA in the absence of chemical substance", "setting": "yeast gene YGL126W", "result": 1.0}, {"measurement": "level of expressed mRNA in the presence/in the absence of chemical substance", "setting": "yeast gene YGL205W", "result": 0.4}, {"measurement": "The level of expressed mRNA in the presence of chemical substance/The level of expressed mRNA in the absence of chemical substance", "setting": "yeast gene YGL209W", "result": 0.8}, {"measurement": "The level of expressed mRNA in the presence of chemical substance/The level of expressed mRNA in the absence of chemical substance", "setting": "yeast gene YGL248W", "result": 1.0}, {"measurement": "The level of expressed mRNA in the presence of chemical substance/The level of expressed mRNA in the absence of chemical substance", "setting": "yeast gene YGR037C", "result": 1.4}, {"measurement": "The level of expressed mRNA in the presence of chemical substance/The level of expressed mRNA in the absence of chemical substance", "setting": "yeast gene YGR055W", "result": 1.5}, {"measurement": "level of expressed mRNA in the presence/in the absence of chemical substance", "setting": "yeast gene YGR096W", "result": 0.8}, {"measurement": "level of expressed mRNA in the presence/in the absence of chemical substance", "setting": "yeast gene YGR191W", "result": 1.6}, {"measurement": "The level of expressed mRNA in the presence of chemical substance/The level of expressed mRNA in the absence of chemical substance", "setting": "yeast gene YGR194C", "result": 0.7}, {"measurement": "level of expressed mRNA in the presence/in the absence of chemical substance", "setting": "yeast gene YGR204W", "result": 2.1}, {"measurement": "The level of expressed mRNA in the presence of chemical substance/The level of expressed mRNA in the absence of chemical substance", "setting": "yeast gene YGR256W", "result": 2.7}, {"measurement": "The level of expressed mRNA in the presence of chemical substance/The level of expressed mRNA in the absence of chemical substance", "setting": "yeast gene YGR282C", "result": 1.5}, {"measurement": "level of expressed mRNA in the presence/in the absence of chemical substance", "setting": "yeast gene YGR288W", "result": 1.3}, {"measurement": "level of expressed mRNA in the presence/in the absence of chemical substance", "setting": "yeast gene YHR025W", "result": 2.1}, {"measurement": "The level of expressed mRNA in the presence of chemical substance/The level of expressed mRNA in the absence of chemical substance", "setting": "yeast gene YHR111W", "result": 1.9}, {"measurement": "level of expressed mRNA in the presence/in the absence of chemical substance", "setting": "yeast gene YHR123W", "result": 1.2}, {"measurement": "The level of expressed mRNA in the presence of chemical substance/The level of expressed mRNA in the absence of chemical substance", "setting": "yeast gene YHR137W", "result": 0.6}, {"measurement": "The level of expressed mRNA in the presence of chemical substance/The level of expressed mRNA in the absence of chemical substance", "setting": "yeast gene YHR174W", "result": 1.4}, {"measurement": "The level of expressed mRNA in the presence of chemical substance/The level of expressed mRNA in the absence of chemical substance", "setting": "yeast gene YHR176W", "result": 1.2}, {"measurement": "level of expressed mRNA in the presence/in the absence of chemical substance", "setting": "yeast gene YHR210C", "result": 1.5}, {"measurement": "level of expressed mRNA in the presence/in the absence of chemical substance", "setting": "yeast gene YIL006W", "result": 1.0}, {"measurement": "The level of expressed mRNA in the presence of chemical substance/The level of expressed mRNA in the absence of chemical substance", "setting": "yeast gene YIL045W", "result": 1.2}, {"measurement": "The level of expressed mRNA in the presence of chemical substance/The level of expressed mRNA in the absence of chemical substance", "setting": "yeast gene YIL107C", "result": 0.9}, {"measurement": "The level of expressed mRNA in the presence of chemical substance/The level of expressed mRNA in the absence of chemical substance", "setting": "yeast gene YIL154C", "result": 1.2}, {"measurement": "The level of expressed mRNA in the presence of chemical substance/The level of expressed mRNA in the absence of chemical substance", "setting": "yeast gene YIL155C", "result": 1.3}, {"measurement": "The level of expressed mRNA in the presence of chemical substance/The level of expressed mRNA in the absence of chemical substance", "setting": "yeast gene YIL167W", "result": 1.9}, {"measurement": "The level of expressed mRNA in the presence of chemical substance/The level of expressed mRNA in the absence of chemical substance", "setting": "yeast gene YIR017C", "result": 4.2}, {"measurement": "The level of expressed mRNA in the presence of chemical substance/The level of expressed mRNA in the absence of chemical substance", "setting": "yeast gene YIR034C", "result": 3.0}, {"measurement": "The level of expressed mRNA in the presence of chemical substance/The level of expressed mRNA in the absence of chemical substance", "setting": "yeast gene YIR036C", "result": 2.8}, {"measurement": "The level of expressed mRNA in the presence of chemical substance/The level of expressed mRNA in the absence of chemical substance", "setting": "yeast gene YJL031C", "result": 1.9}, {"measurement": "The level of expressed mRNA in the presence of chemical substance/The level of expressed mRNA in the absence of chemical substance", "setting": "yeast gene YJL068C", "result": 3.2}, {"measurement": "The level of expressed mRNA in the presence of chemical substance/The level of expressed mRNA in the absence of chemical substance", "setting": "yeast gene YJL088W", "result": 0.9}, {"measurement": "The level of expressed mRNA in the presence of chemical substance/The level of expressed mRNA in the absence of chemical substance", "setting": "yeast gene YJL099W", "result": 0.9}, {"measurement": "level of expressed mRNA in the presence/in the absence of chemical substance", "setting": "yeast gene YJL121C", "result": 1.1}, {"measurement": "level of expressed mRNA in the presence/in the absence of chemical substance", "setting": "yeast gene YJL167W", "result": 1.2}, {"measurement": "The level of expressed mRNA in the presence of chemical substance/The level of expressed mRNA in the absence of chemical substance", "setting": "yeast gene YJL172W", "result": 1.4}, {"measurement": "level of expressed mRNA in the presence/in the absence of chemical substance", "setting": "yeast gene YJL216C", "result": 1.1}, {"measurement": "The level of expressed mRNA in the presence of chemical substance/The level of expressed mRNA in the absence of chemical substance", "setting": "yeast gene YJL219W", "result": 2.3}, {"measurement": "level of expressed mRNA in the presence/in the absence of chemical substance", "setting": "yeast gene YJR077C", "result": 1.6}, {"measurement": "The level of expressed mRNA in the presence of chemical substance/The level of expressed mRNA in the absence of chemical substance", "setting": "yeast gene YJR137C", "result": 2.0}, {"measurement": "level of expressed mRNA in the presence/in the absence of chemical substance", "setting": "yeast gene YJR143C", "result": 1.3}, {"measurement": "The level of expressed mRNA in the presence of chemical substance/The level of expressed mRNA in the absence of chemical substance", "setting": "yeast gene YJR148W", "result": 0.6}]}
